Several values for one entry are separate records, joined by “and”; a condition that tells them apart may be missing. Identical values can stand only once. Like-named read-outs stand apart in the source and are kept apart here.
How the values were obtained:
[1] = target: K-Ras G12C(GMP-PNP) binding to BRAF RBD (Homo sapiens (Human), UniProt P01116+P62937, G12C); test: Disruption of BRAF RBD interaction with K-Ras (FRET / MOA assay), K-Ras G12C; format: biochemical
From the text: Note—The following protocol describes a procedure for monitoring disruption of K-Ras G12C(GMP-PNP) binding to BRAF^RBD by a compound of the invention. This protocol may also be executed substituting other Ras proteins or nucleotides.
The purpose of this biochemical assay was to measure the ability of test compounds to facilitate ternary complex formation between a nucleotide-loaded K-Ras isoform and Cyclophilin A; the resulting ternary complex disrupts binding to a BRAF^RBD construct, inhibiting K-Ras signaling through a RAF effector. Data is reported as IC50 values.
Compound was present in plate wells as a 10-point 3-fold dilution series starting at a final concentration of 30 μM. After incubation at 25° C. for 3 hours, a mixture of Anti-His Eu—W1024 and anti-GST allophycocyanin was then added to assay sample wells at final concentrations of 10 nM and 50 nM, respectively, and the reaction incubated for an additional 1.5 hours. […] Compounds that facilitate disruption of a K-Ras: RAF complex were identified as those eliciting a decrease in the TR-FRET ratio relative to DMSO control wells.

[2] = system: K-Ras G12C (NCI-H358 cells); test: Potency assay: pERK in NCI-H358 cells; format: cell-based, human; conditions: NCI-H358 cells, 4 hours, read-out: pERK EC50 (H358 KRAS G12C)
Procedure, shortened: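 Cells plated the day before were exposed for 4 h at 37° C, 5% CO2 to a 10-point, 3-fold DMSO dilution series (10 mM top stock), in duplicate. Phospho-ERK was read by AlphaLISA SureFire Ultra or by In-Cell Western with DRAQ5 DNA stain, and IC50 came from a 4-parameter sigmoidal fit.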

[3] = system: NCI-H358 (K-Ras G12C); test: CellTiter-Glo cell viability assay, NCI-H358; format: cell-based, human; conditions: Homo sapiens, NCI-H358, 120 h, 5-day treatment; read-out: H358 Cell Viability assay data (K-Ras G12C, IC50)
Procedure, shortened: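 Five-day compound treatment of NCI-H358 cells, then CellTiter-Glo luminescence, percent of DMSO, four-parameter logistic fit.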

[4] = system: Capan-1 cells (K-Ras G12V); test: CellTiter-Glo cell viability, Capan-1; format: cell-based, human; conditions: Homo sapiens, CAPAN-1, 120 h, K-Ras G12V, 5-day treatment; read-out: Capan-1 Cell Viability IC50
Procedure, shortened: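 Five-day treatment of K-Ras mutant cells with directly dispensed compound; ATP-based luminescence endpoint. Percent of DMSO signal fit to four-parameter logistic curve.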

[5] = target: KRAS G12D (Homo sapiens (Human), UniProt P01116+P62937, G12D); test: Ras-Raf disruption/FRET/MOA assay (BRAF RBD, Cyclophilin A); format: biochemical; conditions: read-out: KRAS G12D FRET IC50
Procedure, shortened: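 TR-FRET read after 1.5 h with 10 nM anti-His Eu-W1024 and 50 nM anti-GST APC, following 3 h at 25 °C of GMPPNP-loaded His6-Ras (12.5 nM), GST-BRAF RBD (50 nM) and Cyclophilin A (25 μM) with compound from 30 μM final, 10 points, 3-fold. IC50 reported; pH 7.3 HEPES, 100 mM NaCl.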

Sequence of K-Ras G12C(GMP-PNP) binding to BRAF RBD (P01116 other isoform, or with tags, fused parts or gaps G12C): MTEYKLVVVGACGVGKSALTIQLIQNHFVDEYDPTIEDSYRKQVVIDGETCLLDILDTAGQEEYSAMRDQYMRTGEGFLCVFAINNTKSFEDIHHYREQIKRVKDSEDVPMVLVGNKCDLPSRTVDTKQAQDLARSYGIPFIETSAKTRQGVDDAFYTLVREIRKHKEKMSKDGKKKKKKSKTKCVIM
Sequence of K-Ras G12C(GMP-PNP) binding to BRAF RBD (P62937 whole entry): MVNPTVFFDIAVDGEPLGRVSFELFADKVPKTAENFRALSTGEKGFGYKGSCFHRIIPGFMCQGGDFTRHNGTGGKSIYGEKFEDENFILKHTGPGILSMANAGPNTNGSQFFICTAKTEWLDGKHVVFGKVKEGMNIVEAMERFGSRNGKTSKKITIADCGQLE
Sequence of KRAS G12D (P01116 other isoform, or with tags, fused parts or gaps G12D): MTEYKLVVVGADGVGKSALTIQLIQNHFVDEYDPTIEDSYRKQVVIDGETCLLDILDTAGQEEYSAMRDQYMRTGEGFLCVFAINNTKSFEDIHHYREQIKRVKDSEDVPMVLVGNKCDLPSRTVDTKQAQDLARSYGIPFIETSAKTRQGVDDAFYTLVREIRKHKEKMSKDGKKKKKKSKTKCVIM
Sequence of KRAS G12D (P62937 whole entry): as the sequence (P62937 whole entry) above

| IC50 ([1]; read-out: KRAS G12C FRET IC50) | IC50 [3] [nM] | SMILES | further results |
| --- | --- | --- | --- |
| 100 to 1000 nM | 100 to 1000 | CCn1c(-c2cccnc2[C@H](C)OC)c2c3cc(ccc31)-c1cc(O)cc(c1)C[C@H](NC(=O)[C@H](C(C)C)N(C)C(=O)[C@H]1C[C@H]1C)C(=O)N1CCC[C@H](N1)C(=O)OCC(C)(C)C2 [Compound A146] | – |
| 10 to 100 nM and < 10 nM | – | CCn1c(-c2cccnc2[C@H](C)OC)c2c3cc(ccc31)-c1cc(O)cc(c1)C[C@H](NC(=O)[C@H](C(C)C)N(C)C(=O)O[C@H]1CCOC1)C(=O)N1CCC[C@H](N1)C(=O)OCC(C)(C)C2 [Compound A209] | – |

The remaining lines, values behind:

| SMILES | IC50 ([1]; read-out: KRAS G12C FRET IC50) | IC50 [3] [nM] | further results |
| --- | --- | --- | --- |
| CCn1c(-c2cccnc2[C@H](C)OC)c2c3cc(ccc31)-c1cc(O)cc(c1)C[C@H](NC(=O)[C@H](C(C)C)N(C)C(=O)C1CCN3CCOCC13)C(=O)N1CCC[C@H](N1)C(=O)OCC(C)(C)C2 (some centres unmarked) [Compound A123] | – | – | IC50 ([1]; KRAS G12C FRET IC50): 10 to 100 nM; EC50 ([2]; Homo sapiens): < 5000 nM |
| CCn1c(-c2cccnc2[C@H](C)OC)c2c3cc(ccc31)-c1csc(n1)C[C@H](NC(=O)[C@H](C(C)C)N(C)C(=O)N(C)C)C(=O)N1CCC[C@H](N1)C(=O)OCC(C)(C)C2 [Compound A136] | 1000 to 10000 nM | – | – |
| CCn1c(-c2cccnc2[C@H](C)OC)c2c3cc(ccc31)-c1csc(n1)C[C@H](NC(=O)[C@H](C(C)C)N(C)C(=O)[C@@H]1OCC[C@@H]1C)C(=O)N1CCC[C@H](N1)C(=O)OCC(C)(C)C2 [Compound A143] | 100 to 1000 nM | 10 to 100 | – |
| C=CC(=O)N1CC[C@]2(CCCN([C@H](C(=O)N[C@H]3Cc4cc(O)cc(c4)-c4ccc5c(c4)c(c(-c4ccccc4CCOC)n5CC)CC(C)(C)COC(=O)[C@@H]4CCCN(N4)C3=O)C(C)C)C2)C1 [Compound A217] | 100 to 1000 nM and > 10000 nM | – | EC50 ([2]; Homo sapiens): < 5000 nM |
| CCn1c(-c2cccnc2[C@H](C)OC)c2c3cc(ccc31)-c1cc(O)cc(c1)C[C@H](NC(=O)[C@H](C(C)C)N(C)C(=O)C1NCCC13CC3)C(=O)N1CCC[C@H](N1)C(=O)OCC(C)(C)C2 (some centres unmarked) [Compound A228] | 1000 to 10000 nM | > 10000 | – |
| CCn1c(-c2cccnc2[C@H](C)OC)c2c3cc(ccc31)-c1cc(O)cc(c1)C[C@H](NC(=O)[C@H](C(C)C)N(C)C(=O)[C@H]1CCN(C(=O)[C@H]3CCCN3)C1)C(=O)N1CCC[C@H](N1)C(=O)OCC(C)(C)C2 [Compound A378] | 100 to 1000 nM | – | IC50 [4]: 1000 to 10000 nM |
| CCn1c(-c2cccnc2[C@H](C)OC)c2c3cc(ccc31)C1=C[C@@H](O)CN(C1)C[C@H](NC(=O)[C@H]1[C@H](C)[C@@H]1C)C(=O)N1CCC[C@H](N1)C(=O)OCC(C)(C)C2 [Compound A441, (1R,2R,3S)—N-((2^3S,6^3S,4S)-1^1-ethyl-2^3-hydroxy-1^2-(2-((S)-1-methoxyethyl)pyridin-3-yl)-10,10-dimethyl-5,7-dioxo-2^1,2^2,2^3,2^6,6^1,6^2,6^3,6^4,6^5,6^6-decahydro-1^1H-8-oxa-1 (5,3)-indola-6 (1,3)-pyridazina-2 (5,1)-pyridinacycloundecaphane-4-yl)-2,3-dimethylcyclopropane-1-carboxamide] | 1000 to 10000 nM | – | IC50 [5]: 100 to 1000 nM; EC50 [2]: < 5000 nM |

From patent publication US20250195521A1 (Revolution Medicines, Inc., priority 2020, published 2025)
